pIC50: −log10 of the molar value.
target: T1, cellular PARG (Homo sapiens, UniProt Q86W56); experiment: Nuclear PAR accumulation assay (immunofluorescence high-content imaging, MMS-treated HeLa cells); type: cell-based; settings: 1 hour compound then MMS 50 μg/mL for an additional hour
T1 construct: endogenous in cells; host or cells: HeLa
Summary of the method: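 HeLa cells pretreated with compound for 1 h at 37° C, then given 50 μg/mL MMS for another hour. After methanol fixation, PAR was immunostained with DAPI nuclear counterstain; per-nucleus intensity and percent PAR-positive cells were imaged at 20× (≥1,000 cells/well). IC50 from four-parameter logistic fit.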

T1 sequence (Q86W56 whole entry): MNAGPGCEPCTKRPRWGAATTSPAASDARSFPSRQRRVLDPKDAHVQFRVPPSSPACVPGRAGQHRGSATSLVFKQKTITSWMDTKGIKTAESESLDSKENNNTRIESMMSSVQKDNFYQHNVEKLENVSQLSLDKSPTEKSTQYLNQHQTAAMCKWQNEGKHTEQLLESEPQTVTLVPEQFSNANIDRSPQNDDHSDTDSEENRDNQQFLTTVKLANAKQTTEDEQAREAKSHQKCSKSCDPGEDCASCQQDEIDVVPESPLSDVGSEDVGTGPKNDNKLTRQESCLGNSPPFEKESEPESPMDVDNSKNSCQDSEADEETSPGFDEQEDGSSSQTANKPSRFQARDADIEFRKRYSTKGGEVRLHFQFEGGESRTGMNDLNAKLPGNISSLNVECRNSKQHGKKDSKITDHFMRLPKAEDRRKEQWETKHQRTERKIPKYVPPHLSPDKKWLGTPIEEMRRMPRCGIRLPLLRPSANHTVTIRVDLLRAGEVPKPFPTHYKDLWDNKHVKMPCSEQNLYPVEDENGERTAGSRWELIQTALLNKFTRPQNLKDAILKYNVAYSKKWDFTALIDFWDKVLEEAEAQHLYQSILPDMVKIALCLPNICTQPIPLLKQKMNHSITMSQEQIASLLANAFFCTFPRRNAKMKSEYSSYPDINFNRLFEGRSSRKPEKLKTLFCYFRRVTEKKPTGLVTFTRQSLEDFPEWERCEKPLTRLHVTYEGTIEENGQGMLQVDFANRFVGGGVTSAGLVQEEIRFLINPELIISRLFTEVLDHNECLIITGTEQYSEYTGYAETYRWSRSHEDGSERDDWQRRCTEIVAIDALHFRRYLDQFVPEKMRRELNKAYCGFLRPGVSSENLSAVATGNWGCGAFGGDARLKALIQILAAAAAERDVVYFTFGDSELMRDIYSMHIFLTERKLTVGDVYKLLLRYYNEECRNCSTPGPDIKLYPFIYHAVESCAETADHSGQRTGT

| Compound | pIC50 |
| --- | --- |
| Cn1ncc(C#C[C@@H]2CN=C3N(Cc4cnn5c4CNCC5)C(=O)c4cc(S(=O)(=O)NC5(C)CC5)ccc4N32)n1 [Example 288, (R)-1-((2-methyl-2H-1,2,3-triazol-4-yl)ethynyl)-N-(1-methylcyclopropyl)-5-oxo-4-((4,5,6,7-tetrahydropyrazolo[1,5-a]pyrazin-3-yl)methyl)-1,2,4,5-tetrahydroimidazo[1,2-a]quinazoline-7-sulfonamide] | > 7.00 |
| [2H]C([2H])(c1cnn(C)c1)N1C(=O)c2cc(S(=O)(=O)NC3(C)CC3)c(F)cc2N2C1=NC[C@H]2C#C [Example 289, (R)-1-ethynyl-8-fluoro-4-((1-methyl-1H-pyrazol-4-yl)methyl-d2)-N-(1-methylcyclopropyl)-5-oxo-1,2,4,5-tetrahydroimidazo[1,2-a]quinazoline-7-sulfonamide] | > 7.00 |
| CC1(NS(=O)(=O)c2ccc3c(c2)C(=O)N(Cc2cnn4c2CNCC4)C2=N[C@H]4CCC[C@H]4N23)CC1 [Example 290, (7aS,10aR)-N-(1-methylcyclopropyl)-5-oxo-6-((4,5,6,7-tetrahydropyrazolo[1,5-a]pyrazin-3-yl)methyl)-6,7a,8,9,10,10a-hexahydro-5H-cyclopenta[4,5]imidazo[1,2-a]quinazoline-3-sulfonamide] | 6.00 to 7.00 |
| CC(=O)N1CCn2ncc(CN3C(=O)c4cc(S(=O)(=O)NC5(C)CC5)ccc4N4C3=N[C@H]3CCC[C@H]34)c2C1 [Example 291, (7aS,10aR)-6-((5-acetyl-4,5,6,7-tetrahydropyrazolo[1,5-a]pyrazin-3-yl)methyl)-N-(1-methylcyclopropyl)-5-oxo-6,7a,8,9,10,10a-hexahydro-5H-cyclopenta[4,5]imidazo[1,2-a]quinazoline-3-sulfonamide] | 6.00 to 7.00 |
| CC(=O)N1CCN(c2cc(S(=O)(=O)NC3(C)CC3)cc3c2N2C(=NC[C@H]2C)N(Cc2cnn(C)c2)C3=O)CC1 [Example 292, (R)-9-(4-acetylpiperazin-1-yl)-1-methyl-4-((1-methyl-1H-pyrazol-4-yl)methyl)-N-(1-methylcyclopropyl)-5-oxo-1,2,4,5-tetrahydroimidazo[1,2-a]quinazoline-7-sulfonamide] | 6.00 to 7.00 |
| COC(=O)[C@@H]1N=C2N(Cc3cnn(C)c3)C(=O)c3cc(S(=O)(=O)NC4(C)CC4)ccc3N2[C@@H]1C [Example 293, methyl (1R,2R)-1-methyl-4-((1-methyl-1H-pyrazol-4-yl)methyl)-7-(N-(1-methylcyclopropyl)sulfamoyl)-5-oxo-1,2,4,5-tetrahydroimidazo[1,2-a]quinazoline-2-carboxylate] | 6.00 to 7.00 |
| C[C@@H]1[C@H](CO)N=C2N(Cc3cnn(C)c3)C(=O)c3cc(S(=O)(=O)NC4(C)CC4)ccc3N21 [Example 294, (1R,2R)-2-(hydroxymethyl)-1-methyl-4-((1-methyl-1H-pyrazol-4-yl)methyl)-N-(1-methylcyclopropyl)-5-oxo-1,2,4,5-tetrahydroimidazo[1,2-a]quinazoline-7-sulfonamide] | > 7.00 |
| CC(=O)NC[C@@H]1N=C2N(Cc3cnn(C)c3)C(=O)c3cc(S(=O)(=O)NC4(C)CC4)ccc3N2[C@@H]1C [Example 295, N-(((1R,2S)-1-methyl-4-((1-methyl-1H-pyrazol-4-yl)methyl)-7-(N-(1-methylcyclopropyl)sulfamoyl)-5-oxo-1,2,4,5-tetrahydroimidazo[1,2-a]quinazolin-2-yl)methyl)acetamide] | 6.00 to 7.00 |
| C#C[C@@H]1CN=C2N(Cc3cnn4c3CNCC4)C(=O)c3cc(S(=O)(=O)NC4(C)CC4)cc(Cl)c3N21 [Example 297, (R)-9-chloro-1-ethynyl-N-(1-methylcyclopropyl)-5-oxo-4-((4,5,6,7-tetrahydropyrazolo[1,5-a]pyrazin-3-yl)methyl)-1,2,4,5-tetrahydroimidazo[1,2-a]quinazoline-7-sulfonamide] | > 7.00 |

tested on: sensitive cells; experiment: not given; settings: S-phase dependent; cited from earlier work

| Compound | accumulation of nuclear RPA protein and induction of pan-nuclear QH2AX expression |
| --- | --- |
| PDD00017273 | S-phase dependent accumulation of nuclear RPA protein and induction of pan-nuclear QH2AX expression |

Reference: patent US20260285875A1, “INHIBITORS OF PARG” (858 Therapeutics, Inc., priority 2023, published 2026)
